Where “and” joins values, the source holds several entries; their conditions need not be identical. Identical values can stand only once. Each block holds one compound with its values, some of them ahead of it.
Test system: 931267-113-T-J1-PDC multicell spheroid viability
Assay: Anticancer human tumor 931267-113-T-J1-PDC patient-derived colon adenocarcinoma cell line growth inhibition [PI3K]
Settings: for viability, T/C: stronger effect = lower value
From the text: Combinatorial screen of targeted agents with the PI3K inhibitors inavolisib, alpelisib, duvelisib, and copanlisib in multi-cell type tumor spheroids
A high-throughput screen of multi-cell type tumor spheroids was designed to identify active combinations of targeted small molecules and PI3K pathway inhibitors. Complex spheroids include a stromal component modeled by human endothelial cells (HUVEC) and fibroblasts modeled by human mesenchymal stem cells (MSCs). The concentration ranges selected for each drug and investigational agent were based upon clinically achievable concentrations if the clinical Cmax of the agent was known.
Compounds. The drugs and investigational agents: inavolisib (NSC800729), alpelisib (NSC765974), duvelisib (NSC772469), copanlisib (NSC816437), ipatasertib (NSC767898), afuresertib (NSC778305), talazoparib (NSC767125), sapanisertib (NSC764658), selumetinib (NSC741078), tovorafenib (DAY101, NSC766906), vemurafenib (NSC761431), ravoxertinib (NSC781343), sotorasib (NSC818433), MRTX1133 (NSC 836407), abemaciclib (NSC 768073), palbociclib (NSC758247), venetoclax (NSC 766270), SY5609 (NSC837396), enzalutamide (NSC755605), and darolutamide (NSC825331), were obtained from the National Cancer Institute (NCI) Developmental Therapeutics Program Chemical Repository. The FDA-approved anticancer drug set is available from the NCI Developmental Therapeutics Program. […] The stock solutions were prepared in dimethyl sulfoxide (DMSO, Sigma-Aldrich, St. Louis, MO, cat. D2650) at 800-fold the tested concentration and stored at -70 degrees C prior to their use. All drugs and investigational agents were tested over a range starting from a high concentration at or near the clinical Cmax and decreasing in half-log increments. If the clinical Cmax for an agent had not been determined, the highest concentration tested was 10 microM.
Cell Culture. All cells were maintained in an incubator at 37 degrees C and 5% CO2 with 95% humidity. The PDC lines were cultured according to standard operating procedures established by the NCI PDMR (https://pdmr.cancer.gov/sops/default.htm). All PDCs were thawed and cultured in Matrigel-coated flasks prepared with a working solution of 1X Ham's F-12 nutrient mix, without supplementation (Invitrogen, Waltham, MA, cat. 11765054), 100 U/mL penicillin-streptomycin (Invitrogen, cat. 15140122), and 2.5% Matrigel (Corning Inc., Corning, NY, cat. 354248) for the first three passages. The 354836-022-R-J1-PDC, 475296-252-R-J1-PDC, and 997726-040-R-J2-PDC lines were cultured in 6A media, which includes advanced DMEM/F-12 (Thermo Fisher Scientific, cat. 12634028), 10 mM HEPES (Thermo Fisher Scientific, cat. 15630080), 1X GlutaMAX supplement (Thermo Fisher Scientific, cat. 35050061), 0.1 mg/mL primocin (InvivoGen, San Diego, CA, cat. ant-pm-2), 10% defined fetal bovine serum, heat inactivated (HyClone Laboratories Inc., Logan, UT, cat. SH30070.03HI), 50% L-WRN conditioned media (ATCC, cat. CRL-3276), 1.25 mM N-Acetyl-L-cysteine (Sigma-Aldrich, cat. A9165), 10 mM nicotinamide (Sigma-Aldrich, cat. N0636), 1X B-27 supplement (Thermo Fisher Scientific, cat. 17504044), 1X N-2 supplement (Thermo Fisher Scientific, cat. 17502048), and 10 microM Y-27632 dihydrochloride (Tocris Bioscience, Bristol, United Kingdom, cat. 1254). The 624824-186-R-J2-PDC line was cultured in 6C/Colon 1B media, which includes all 6A media components plus 50 ng/mL human EGF recombinant protein (Thermo Fisher Scientific, cat. PHG0311). […]

[1] = curve of first compound, second compound 0.0316 µM
[2] = curve of first compound, second compound 0.1 µM
[3] = curve of first compound, second compound 0.316 µM
[4] = curve of first compound, second compound 1 µM
[5] = curve of first compound, second compound 3.16 µM
[6] = curve of first compound, second compound 10 µM
[7] = second compound 0.0316 µM, first compound 0.0316 µM
[8] = second compound 0.0316 µM, first compound 0.1 µM
[9] = second compound 0.0316 µM, first compound 0.316 µM
[10] = second compound 0.0316 µM, first compound 1 µM
[11] = second compound 0.1 µM, first compound 0.0316 µM
[12] = second compound 0.1 µM, first compound 0.1 µM
[13] = second compound 0.1 µM, first compound 0.316 µM
[14] = second compound 0.1 µM, first compound 1 µM
[15] = second compound 0.316 µM, first compound 0.0316 µM
[16] = second compound 0.316 µM, first compound 0.1 µM
[17] = second compound 0.316 µM, first compound 0.316 µM
[18] = second compound 0.316 µM, first compound 1 µM
[19] = second compound 1 µM, first compound 0.0316 µM
[20] = second compound 1 µM, first compound 0.1 µM
[21] = second compound 1 µM, first compound 0.316 µM
[22] = second compound 1 µM, first compound 1 µM
[23] = second compound 3.16 µM, first compound 0.0316 µM
[24] = second compound 3.16 µM, first compound 0.1 µM
[25] = second compound 3.16 µM, first compound 0.316 µM
[26] = second compound 3.16 µM, first compound 1 µM
[27] = second compound 10 µM, first compound 0.0316 µM
[28] = second compound 10 µM, first compound 0.1 µM
[29] = second compound 10 µM, first compound 0.316 µM
[30] = second compound 10 µM, first compound 1 µM
[31] = second compound 0.0316 µM, first compound 3.16 µM
[32] = second compound 0.0316 µM, first compound 10 µM
[33] = second compound 0.1 µM, first compound 3.16 µM
[34] = second compound 0.1 µM, first compound 10 µM
[35] = second compound 0.316 µM, first compound 3.16 µM
[36] = second compound 0.316 µM, first compound 10 µM
[37] = second compound 1 µM, first compound 3.16 µM
[38] = second compound 1 µM, first compound 10 µM
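Also: viability read 7 days after compound addition.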

IC50 [1]: > 1000 nM
IC50 [2]: > 1000 nM
IC50 [3]: > 1000 nM
IC50 [4]: > 1000 nM
IC50 [5]: > 1000 nM
IC50 [6]: > 1000 nM
Compound: CCN1CCN(Cc2ccc(Nc3ncc(F)c(-c4cc(F)c5nc(C)n(C(C)C)c5c4)n3)nc2)CC1 + CC(Nc1ncnc2nc[nH]c12)c1cc2cccc(Cl)c2c(=O)n1-c1ccccc1
viability, T/C (second compound 0.0316 µM, first compound 0.00316 µM): 102%
viability, T/C (second compound 0.0316 µM, first compound 0.01 µM): 94.6%
viability, T/C [7]: 108%
viability, T/C [8]: 100%
viability, T/C [9]: 104%
viability, T/C [10]: 90.2%
viability, T/C (second compound 0.1 µM, first compound 0.00316 µM): 101%
viability, T/C (second compound 0.1 µM, first compound 0.01 µM): 110%
viability, T/C [11]: 104%
viability, T/C [12]: 109%
viability, T/C [13]: 100%
viability, T/C [14]: 84.2%
viability, T/C (second compound 0.316 µM, first compound 0.00316 µM): 111%
viability, T/C (second compound 0.316 µM, first compound 0.01 µM): 107%
viability, T/C [15]: 97.7%
viability, T/C [16]: 98.5%
viability, T/C [17]: 109%
viability, T/C [18]: 98.2%
viability, T/C (second compound 1 µM, first compound 0.00316 µM): 103%
viability, T/C (second compound 1 µM, first compound 0.01 µM): 101%
viability, T/C [19]: 105%
viability, T/C [20]: 102%
viability, T/C [21]: 102%
viability, T/C [22]: 86%
viability, T/C (second compound 3.16 µM, first compound 0.00316 µM): 107%
viability, T/C (second compound 3.16 µM, first compound 0.01 µM): 93.4%
viability, T/C [23]: 86.8%
viability, T/C [24]: 95.3%
viability, T/C [25]: 92.8%
viability, T/C [26]: 81.2%
viability, T/C (second compound 10 µM, first compound 0.00316 µM): 92%
viability, T/C (second compound 10 µM, first compound 0.01 µM): 86.7%
viability, T/C [27]: 89.7%
viability, T/C [28]: 80.8%
viability, T/C [29]: 81.9%
viability, T/C [30]: 67.9%

IC50 (curve of first compound, second compound 0.00316 µM): > 10000 nM
IC50 (curve of first compound, second compound 0.01 µM): > 10000 nM
IC50 [1]: > 10000 nM
IC50 [2]: 4050 nM
IC50 [3]: 1320 nM
IC50 [4]: < 31.6 nM
Compound: C[C@@H](NC(=O)c1ncnc(N)c1Cl)c1ncc(C(=O)Nc2cc(C(F)(F)F)c(Cl)cn2)s1 + COc1c(OCCCN2CCOCC2)ccc2c3n(c(=NC(=O)c4cnc(N)nc4)nc12)CCN3
viability, T/C (second compound 0.00316 µM, first compound 0.0316 µM): 109%
viability, T/C (second compound 0.00316 µM, first compound 0.1 µM): 117%
viability, T/C (second compound 0.00316 µM, first compound 0.316 µM): 106%
viability, T/C (second compound 0.00316 µM, first compound 1 µM): 111%
viability, T/C (second compound 0.00316 µM, first compound 3.16 µM): 105%
viability, T/C (second compound 0.00316 µM, first compound 10 µM): 76%
viability, T/C (second compound 0.01 µM, first compound 0.0316 µM): 108%
viability, T/C (second compound 0.01 µM, first compound 0.1 µM): 102%
viability, T/C (second compound 0.01 µM, first compound 0.316 µM): 104%
viability, T/C (second compound 0.01 µM, first compound 1 µM): 115%
viability, T/C (second compound 0.01 µM, first compound 3.16 µM): 96.5%
viability, T/C (second compound 0.01 µM, first compound 10 µM): 74.2%
viability, T/C [7]: 95.3%
viability, T/C [8]: 94.4%
viability, T/C [9]: 94.7%
viability, T/C [10]: 92.1%
viability, T/C [31]: 76.6%
viability, T/C [32]: 51%
viability, T/C [11]: 86.5%
viability, T/C [12]: 75.8%
viability, T/C [13]: 76.6%
viability, T/C [14]: 65%
viability, T/C [33]: 57.2%
viability, T/C [34]: 33.7%
viability, T/C [15]: 58.9%
viability, T/C [16]: 58.8%
viability, T/C [17]: 59.4%
viability, T/C [18]: 51.4%
viability, T/C [35]: 41.8%
viability, T/C [36]: 25.1%
viability, T/C [19]: 45.4%
viability, T/C [20]: 41%
viability, T/C [21]: 42.6%
viability, T/C [22]: 35.2%
viability, T/C [37]: 32.1%
viability, T/C [38]: 18.5%

IC50 [1]: 631 nM
IC50 [2]: 573 nM
IC50 [3]: 664 nM
IC50 [4]: 677 nM
IC50 [5]: 378 nM
IC50 [6]: 222 nM
Compound: C#Cc1c(F)ccc2cc(O)cc(-c3ncc4c(N5CC6CCC(C5)N6)nc(OCC56CCCN5CC(F)C6)nc4c3F)c12 (configuration not stated) + CC(Nc1ncnc2nc[nH]c12)c1cc2cccc(Cl)c2c(=O)n1-c1ccccc1
viability, T/C [7]: 96.4%
viability, T/C [8]: 74%
viability, T/C [9]: 57.6%
viability, T/C [10]: 45.7%
viability, T/C [31]: 32.6%
viability, T/C [32]: 22.5%
viability, T/C [11]: 105%
viability, T/C [12]: 78.1%
viability, T/C [13]: 56.6%
viability, T/C [14]: 45.4%
viability, T/C [33]: 29.5%
viability, T/C [34]: 24.5%
viability, T/C [15]: 90.9%
viability, T/C [16]: 72.9%
viability, T/C [17]: 61.4%
viability, T/C [18]: 43.4%
viability, T/C [35]: 33.6%
viability, T/C [36]: 23.2%
viability, T/C [19]: 89.1%
viability, T/C [20]: 78.6%
viability, T/C [21]: 57.9%
viability, T/C [22]: 42.1%
viability, T/C [37]: 37.3%
viability, T/C [38]: 21.2%
viability, T/C [23]: 87.3%
viability, T/C [24]: 70.3%
viability, T/C [25]: 52.1%
viability, T/C [26]: 36.1%
viability, T/C (second compound 3.16 µM, first compound 3.16 µM): 28.4%
viability, T/C (second compound 3.16 µM, first compound 10 µM): 17.6%
viability, T/C [27]: 91.1%
viability, T/C [28]: 63.1%
viability, T/C [29]: 45%
viability, T/C [30]: 27.1%
viability, T/C (second compound 10 µM, first compound 3.16 µM): 22.7%
viability, T/C (second compound 10 µM, first compound 10 µM): 12%

IC50 (curve of compound): > 10000 nM
Compound: C=CC(=O)N1CCN(c2nc(=O)n(-c3c(C)ccnc3C(C)C)c3nc(-c4c(O)cccc4F)c(F)cc23)C(C)C1 (configuration not stated)
viability, T/C (compound 0.0316 µM): 119% and 104% (2×) and 102%
viability, T/C (compound 0.316 µM): 106% [middle of 4 runs]
viability, T/C (compound 1 µM): 109% [middle of 4 runs]
viability, T/C (compound 3.16 µM): 108% and 110% (2×) and 107%
viability, T/C (compound 10 µM): 104% and 105% (2×) and 99.7%

Source: PubChem BioAssay AID1963970 (Molecular Pharmacology Branch, DTP, NCI, 2024)
